{
  "source": "patent US20110306671A1",
  "about": "“AMIDE DERIVATIVES OF ETHACRYNIC ACID” (The Regents of the The University of California, priority 2008, published 2011)",
  "key": {"LEF-1/β-catenin complex": {"molecular_target": "T1, LEF-1/β-catenin complex (Homo sapiens, UniProt Q9UJU2)", "T1 construct": "endogenous in cells; host or cells: SW480 cells", "T1 sequence (Q9UJU2 whole entry, one chain of several)": "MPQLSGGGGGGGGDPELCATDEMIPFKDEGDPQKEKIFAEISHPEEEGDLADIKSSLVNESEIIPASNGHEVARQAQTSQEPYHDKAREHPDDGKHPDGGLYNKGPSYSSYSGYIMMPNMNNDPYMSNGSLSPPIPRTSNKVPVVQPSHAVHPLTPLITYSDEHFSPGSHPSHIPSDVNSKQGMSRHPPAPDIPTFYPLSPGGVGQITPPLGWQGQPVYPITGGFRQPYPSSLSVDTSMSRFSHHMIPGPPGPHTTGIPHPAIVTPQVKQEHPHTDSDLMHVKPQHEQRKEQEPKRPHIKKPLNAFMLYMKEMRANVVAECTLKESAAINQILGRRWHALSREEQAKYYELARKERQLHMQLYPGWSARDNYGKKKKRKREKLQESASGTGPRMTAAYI", "experiment": "Co-immunoprecipitation of the β-catenin complex in SW480 cells", "assay_type": "cell-based", "settings": "increasing EA, 16 hours", "method": "FIG. 7. EA destabilizes the LEF-1/β-catenin complex. (A) SW480 cells were treated with increasing amounts of EA for 16 hours. Cells were lysed, and IP was completed with anti-β-catenin monoclonal antibody. The immune complexes were analyzed by immunoblotting with anti-LEF-1, anti-α-catenin and anti-β-catenin antibodies. (B) EA inhibits Wnt/β-catenin signaling in SW480 cells. SW480 cells were transfected with TOPflash reporter and control plasmid pCMXβgal. After transfection for 24 hours, cells were treated with increasing concentrations of EA for another 24 hours as indicated. Cells were then harvested and luciferase values were determined. The results are expressed as relative luciferase activity (%) normalized to a β-galactosidase control.\nPrimary CLL cells and SW480 cells were treated with the indicated amounts of EA. Cells were washed twice with PBS and resuspended in 0.5 mL lysis buffer (20 mM Tris-HCl, pH 8.0/10% glycerol/5 mM MgCl2/0.15 M KCl/0.1% Nonidet P-40 with protease inhibitors). For CLL cells, lysates of 1 to 2×10^7 cells were incubated with anti-LEF-1 antibody at a 1:1000 dilution overnight at 4° C., and then with saturating amounts of protein G plus/protein A agarose beads (Calbiochem) at 4° C. for 2 hours before centrifugation at 15,000 g for 5 minutes. […]"}, "RAMOS": {"system": "RAMOS", "experiment": "Cytotoxicity of EA in tumor cell line RAMOS", "assay_type": "cell-based", "settings": "Homo sapiens, mean of at least two experiments"}, "[1]": {"system": "NFATc-mediated transcription", "experiment": "NFAT reporter assay in HEK293 cells", "assay_type": "cell-based, human", "settings": "50 μM EA, 24 hours", "method": "FIG. 1. Inhibition of Wnt/β-catenin signaling by EA. […] Cells were lysed and luciferase activity was quantified. Total protein levels were determined by Bradford Assay and serve as a control for total cell number. (B) HEK293 cells were co-transfected with TOPflash reporter construct, along with expression plasmids for Wnt1, Wnt3, LRP6, Dvl and β-catenin as indicated. […] (C) HEK293 cells were transfected with FOPflash reporter with or without an expression plasmid for β-catenin. […] (D) HEK293 cells were transfected with NFAT reporter and expression plasmid for NFATc. […] The results are expressed as fold induction of luciferase activity compared to the basal level, and are the means of three experiments±SEM. For screening of the drug library, HEK293 cells were grown for at least 24 hours in 10 cm plates prior to transfection. At 50% confluence, cells were transfected with 5 μg of TOPflash reporter, 1 μg expression vector for Dvl, 1 μg of control plasmid pCMXβgal and carrier DNA pcDNA3 plasmid for a total of 10 μg/plate. After transfection for 24 hours, cells were harvested and dispersed in 96-well microtiter plates. […] Then luciferase values were determined. In the Results section, data are expressed as fold stimulation of luciferase activity compared to the basal level. […]"}, "LNCap": {"system": "LNCap", "experiment": "Cytotoxicity of EA in tumor cell line LNCap", "assay_type": "cell-based", "settings": "Homo sapiens, mean of at least two experiments"}, "PC3": {"system": "PC3", "experiment": "Cytotoxicity of EA in tumor cell line PC3", "assay_type": "cell-based", "settings": "Homo sapiens, PC-3, mean of at least two experiments"}, "β-catenin": {"molecular_target": "T2, β-catenin (Homo sapiens, UniProt P35222)", "T2 construct": "endogenous in cells", "T2 sequence (P35222 whole entry)": "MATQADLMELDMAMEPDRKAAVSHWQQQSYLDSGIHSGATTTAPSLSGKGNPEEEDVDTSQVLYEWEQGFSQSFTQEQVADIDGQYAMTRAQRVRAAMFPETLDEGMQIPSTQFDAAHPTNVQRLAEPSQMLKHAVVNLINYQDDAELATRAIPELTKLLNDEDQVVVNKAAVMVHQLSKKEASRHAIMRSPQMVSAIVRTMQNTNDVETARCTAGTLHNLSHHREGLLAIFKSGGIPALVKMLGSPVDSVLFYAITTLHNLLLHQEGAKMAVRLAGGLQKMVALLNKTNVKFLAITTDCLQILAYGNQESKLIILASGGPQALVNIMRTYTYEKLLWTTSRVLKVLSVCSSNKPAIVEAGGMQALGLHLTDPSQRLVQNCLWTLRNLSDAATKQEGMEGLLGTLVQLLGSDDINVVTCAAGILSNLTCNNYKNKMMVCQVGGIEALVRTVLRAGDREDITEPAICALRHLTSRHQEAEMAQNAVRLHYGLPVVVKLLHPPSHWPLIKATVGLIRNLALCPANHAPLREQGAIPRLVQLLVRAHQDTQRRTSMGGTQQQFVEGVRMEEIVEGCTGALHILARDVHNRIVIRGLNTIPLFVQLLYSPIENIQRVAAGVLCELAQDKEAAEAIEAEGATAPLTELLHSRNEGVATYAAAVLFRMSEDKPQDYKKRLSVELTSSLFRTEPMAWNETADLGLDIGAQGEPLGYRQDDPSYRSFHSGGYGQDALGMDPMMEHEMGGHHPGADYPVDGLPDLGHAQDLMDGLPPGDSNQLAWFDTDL", "experiment": "Immunoprecipitation and immunoblotting with anti-EA antibody: β-catenin", "assay_type": "binding", "method": "FIG. 6. EA binds to LEF-1 in primary CLL and SW480 cells. (A) lysates from CLL cells exposed to 10 μM EA for 8 hours or 24 hours were immunoprecipitated with anti-LEF-1 antibody. The immune complexes were analyzed by immunoblotting with anti-LEF-1 and anti-EA antibodies. (B) SW480 cells were treated with indicated amounts of EA for 16 hours. Cell lysates were immunoprecipitated with anti-β-catenin antibody (Santa Cruz Biotechnology, Santa Cruz, Calif.). The immune complexes were analyzed by immunoblotting with anti-EA and anti-β-catenin antibodies. (C) SW480 cells were exposed to 50 μM of EA for 16 hours and cell lysates were immunoprecipitated with anti-β-catenin antibody. The proteins in the immunoprecipitates were resolved by SDS-PAGE, transferred, and probed with indicated antibodies.\nA conjugate of EA with Keyhole Limpet Hemocyanin (KLH, Sigma) was prepared by thiolation of KLH with N-succinimidyl S-acetylthioacetate (SATA), followed by allowing the SATA-KLH conjugate to form a Michael adduct with EA, as described in Hermanson (1996). Immunization of rabbits was performed by three 1 mL subcutaneous injections of approximately 0.4 mg EA-KLH conjugates. Complete Freund's adjuvant was used for the first injection. The second and third injections were performed 3 and 6 weeks after the first, using incomplete adjuvant. […]"}},
  "note": "pIC50: −log10 of the molar value.",
  "data": [
    {"molecule": "C=C(CC)C(=O)c1ccc(OCC(=O)O)c(Cl)c1Cl", "note": "[Compound 1, Ethacrynic acid]", "values": [
      {"measurement": "LEF-1 levels in the β-catenin complex", "setting": "LEF-1/β-catenin complex", "value": "decreased LEF-1 levels in the β-catenin complex in a concentration-dependent manner"},
      {"measurement": "α-catenin levels in the β-catenin complex", "setting": "LEF-1/β-catenin complex", "value": "little effect"},
      {"measurement": "pIC50", "setting": "RAMOS", "value": 3.76},
      {"measurement": "effect on NFATc-mediated transcription from a NFAT reporter", "setting": "[1]", "value": "did not block"},
      {"measurement": "pIC50", "setting": "LNCap", "value": 4.34},
      {"measurement": "pIC50", "setting": "PC3", "value": 4.17},
      {"measurement": "binding to β-catenin", "setting": "β-catenin; CLL extracts, data not shown", "value": "did not bind detectably"},
      {"measurement": "detection of precipitated β-catenin by anti-EA antibody", "setting": "β-catenin; SW480 cells, 16 hours", "value": "could not be detected by anti-EA antibody"}
    ]}
  ]
}
